The target of data set [1] is Tyrosine-protein kinase JAK1 (Homo sapiens, UniProt P23458). The data set is described as follows: Inhibition of JAK1 (unknown origin) using Kinase/Tyr 6 peptide as substrate incubated for 1 hrs in presence of ATP by fluorescence microplate reader analysis.
Data set [2] addresses T1, Tyrosine-protein kinase JAK3 (Homo sapiens, UniProt P52333).
T1 sequence (P52333 whole entry): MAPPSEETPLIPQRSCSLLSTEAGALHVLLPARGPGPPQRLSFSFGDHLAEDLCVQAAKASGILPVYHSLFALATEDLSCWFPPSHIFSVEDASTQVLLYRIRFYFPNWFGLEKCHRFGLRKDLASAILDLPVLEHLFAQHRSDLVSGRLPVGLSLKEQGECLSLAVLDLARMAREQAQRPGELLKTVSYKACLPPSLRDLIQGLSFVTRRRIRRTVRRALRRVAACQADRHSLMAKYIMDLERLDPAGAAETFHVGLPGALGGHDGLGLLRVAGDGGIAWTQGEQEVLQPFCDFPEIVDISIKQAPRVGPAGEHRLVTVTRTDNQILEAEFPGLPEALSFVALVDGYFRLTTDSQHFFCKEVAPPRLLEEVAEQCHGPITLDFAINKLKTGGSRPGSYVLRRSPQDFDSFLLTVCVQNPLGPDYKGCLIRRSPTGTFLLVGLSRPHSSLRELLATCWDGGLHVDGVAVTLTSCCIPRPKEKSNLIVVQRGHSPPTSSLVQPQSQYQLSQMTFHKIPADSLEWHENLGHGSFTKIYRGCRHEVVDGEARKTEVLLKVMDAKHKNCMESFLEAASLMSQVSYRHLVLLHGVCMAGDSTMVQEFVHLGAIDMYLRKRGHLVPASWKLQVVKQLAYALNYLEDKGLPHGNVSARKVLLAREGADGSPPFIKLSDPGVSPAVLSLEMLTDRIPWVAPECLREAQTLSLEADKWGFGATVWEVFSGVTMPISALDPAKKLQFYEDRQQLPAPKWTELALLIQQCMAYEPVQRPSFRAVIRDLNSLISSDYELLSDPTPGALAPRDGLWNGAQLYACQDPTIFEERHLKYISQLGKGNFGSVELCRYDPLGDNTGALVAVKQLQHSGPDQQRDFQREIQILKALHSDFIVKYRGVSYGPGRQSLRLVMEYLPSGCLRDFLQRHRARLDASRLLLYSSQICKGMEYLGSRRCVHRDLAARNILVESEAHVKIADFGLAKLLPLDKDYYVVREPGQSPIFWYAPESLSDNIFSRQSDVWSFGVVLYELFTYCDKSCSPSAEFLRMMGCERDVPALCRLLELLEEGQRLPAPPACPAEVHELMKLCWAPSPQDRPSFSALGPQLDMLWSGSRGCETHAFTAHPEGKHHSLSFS
Description: Inhibition of JAK3 (unknown origin) using Kinase/Tyr 6 peptide as substrate incubated for 1 hrs in presence of ATP by fluorescence microplate reader analysis

The target in data set [3] is Tyrosine-protein kinase JAK2 (Homo sapiens, UniProt O60674).
Description: Inhibition of JAK2 (unknown origin) using Kinase/Tyr 6 peptide as substrate incubated for 1 hrs in presence of ATP by fluorescence microplate reader analysis
The test system of data set [4] is Mus musculus. The data set is described as follows: Antiinflammatory activity in DSS-induced acute enteritis C57BL mouse model assessed as suppression of DSS induced weight loss at 100 mg/kg, po administered daily and measured upto 11 days relative to control. The data set is classed as functional. The following applies: time <= 11 day.
In data set [5] the test system is Mus musculus. The data set is described as follows: Antiinflammatory activity in DSS-induced acute colitis C57BL/6 mouse model assessed as reduction in inflammatory cell infiltration in colon by measuring histopathological score at 100 mg/kg, po by H and E staining based analysis. The data set is classed as functional, organism-based.
Data set [6] concerns Mus musculus. The data set is described as follows: Antiinflammatory activity in DSS-induced acute colitis C57BL/6 mouse model assessed as reduction in colon villi integrity in colon by measuring histopathological score at 100 mg/kg, po by H and E staining based analysis. The data set is classed as functional, organism-based.
In data set [7] the test system is Mus musculus. The data set is described as follows: Antiinflammatory activity in DSS-induced acute colitis C57BL/6 mouse model assessed as reduction in intestinal edema in colon by measuring histopathological score at 100 mg/kg, po by H and E staining based analysis. The data set is classed as functional, organism-based.
In data set [8] the test system is Mus musculus. The data set is described as follows: Antiinflammatory activity in DSS-induced acute colitis C57BL/6 mouse model assessed as reduction in number of goblet cells in colon by measuring histopathological score at 100 mg/kg, po by H and E staining based analysis. The data set is classed as functional, organism-based.
Data set [9] has as its system Mus musculus. Put plainly: Antiinflammatory activity in DSS-induced acute colitis C57BL/6 mouse model assessed as reduction in lamina propria damage in colon by measuring histopathological score at 100 mg/kg, po by H and E staining based analysis. The data set is classed as functional, organism-based.
In data set [10] the test system is Mus musculus. The data set is described as follows: Anti-inflammatory activity in TNBS induced IBD BALB/c mouse model assessed as reduction in weight by measuring disease activity index score at 100 mg/kg via oral gavage administered daily for 12 days measured daily. The data set is classed as functional, organism-based. As to conditions: time 12.0 day.
In data set [11] the test system is Mus musculus. The data set is described as follows: Anti-inflammatory activity in TNBS induced IBD BALB/c mouse model assessed as reduction in stool softness by measuring disease activity index score at 100 mg/kg via oral gavage administered daily for 12 days. The data set is classed as functional, organism-based. The following applies: time 12.0 day.
The test system of data set [12] is Mus musculus. The data set is described as follows: Anti-inflammatory activity in TNBS induced IBD BALB/c mouse model assessed as reduction in bloody stool by measuring disease activity index score at 100 mg/kg via oral gavage administered daily for 12 days. The following applies: time 12.0 day. The data set is classed as functional, organism-based.
In data set [13] the target is Nuclear factor NF-kappa-B complex (Homo sapiens, UniProt P19838+Q00653+Q04206). Put plainly: Inhibition of NF kappa B activation (unknown origin). The data set is classed as protein-complex assay.
Data set [14] can be described thus: Cytotoxicity against human THP1-Dual cells assessed as inhibition of cell growth measured after 24 hrs by CCK-8 method. The data set is classed as toxicity, cell-based. In general terms: Tetrazolium dyes change colour on reduction, which living cells bring about.

Activity calls are given as the source filed them. The rule behind the calls is not given here. Some results are limits rather than exact numbers.

Tyrosine-protein kinase JAK2, sequence (O60674 whole entry): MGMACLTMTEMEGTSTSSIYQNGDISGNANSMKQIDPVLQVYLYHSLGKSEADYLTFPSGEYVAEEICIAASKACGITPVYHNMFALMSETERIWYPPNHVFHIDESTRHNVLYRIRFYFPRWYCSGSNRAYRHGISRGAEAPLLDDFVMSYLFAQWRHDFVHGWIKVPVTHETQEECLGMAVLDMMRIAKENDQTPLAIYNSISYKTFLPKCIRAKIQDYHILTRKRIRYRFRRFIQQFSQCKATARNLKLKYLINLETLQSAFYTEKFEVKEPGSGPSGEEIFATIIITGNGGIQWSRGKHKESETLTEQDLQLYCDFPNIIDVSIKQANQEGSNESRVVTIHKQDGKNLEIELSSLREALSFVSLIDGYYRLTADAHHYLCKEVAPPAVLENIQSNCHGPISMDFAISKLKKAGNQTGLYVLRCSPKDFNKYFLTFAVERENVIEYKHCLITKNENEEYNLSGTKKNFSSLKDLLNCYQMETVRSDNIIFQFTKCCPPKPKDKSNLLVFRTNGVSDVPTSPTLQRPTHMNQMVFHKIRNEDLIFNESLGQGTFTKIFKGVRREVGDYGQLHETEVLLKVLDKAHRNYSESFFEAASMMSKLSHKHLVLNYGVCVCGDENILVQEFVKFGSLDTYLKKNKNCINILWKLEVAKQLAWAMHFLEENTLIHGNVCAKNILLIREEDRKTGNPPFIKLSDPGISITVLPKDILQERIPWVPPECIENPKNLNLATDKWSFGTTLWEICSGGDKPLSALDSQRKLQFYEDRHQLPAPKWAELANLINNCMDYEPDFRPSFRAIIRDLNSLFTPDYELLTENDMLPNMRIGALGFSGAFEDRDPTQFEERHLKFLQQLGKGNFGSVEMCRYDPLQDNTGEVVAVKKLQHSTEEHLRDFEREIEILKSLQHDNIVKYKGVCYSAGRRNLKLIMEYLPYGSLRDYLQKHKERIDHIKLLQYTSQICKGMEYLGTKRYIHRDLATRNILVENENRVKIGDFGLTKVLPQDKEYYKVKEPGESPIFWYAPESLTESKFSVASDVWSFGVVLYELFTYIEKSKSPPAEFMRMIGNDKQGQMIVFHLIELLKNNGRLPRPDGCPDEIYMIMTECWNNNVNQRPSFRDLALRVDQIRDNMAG
Tyrosine-protein kinase JAK1, sequence (P23458 whole entry): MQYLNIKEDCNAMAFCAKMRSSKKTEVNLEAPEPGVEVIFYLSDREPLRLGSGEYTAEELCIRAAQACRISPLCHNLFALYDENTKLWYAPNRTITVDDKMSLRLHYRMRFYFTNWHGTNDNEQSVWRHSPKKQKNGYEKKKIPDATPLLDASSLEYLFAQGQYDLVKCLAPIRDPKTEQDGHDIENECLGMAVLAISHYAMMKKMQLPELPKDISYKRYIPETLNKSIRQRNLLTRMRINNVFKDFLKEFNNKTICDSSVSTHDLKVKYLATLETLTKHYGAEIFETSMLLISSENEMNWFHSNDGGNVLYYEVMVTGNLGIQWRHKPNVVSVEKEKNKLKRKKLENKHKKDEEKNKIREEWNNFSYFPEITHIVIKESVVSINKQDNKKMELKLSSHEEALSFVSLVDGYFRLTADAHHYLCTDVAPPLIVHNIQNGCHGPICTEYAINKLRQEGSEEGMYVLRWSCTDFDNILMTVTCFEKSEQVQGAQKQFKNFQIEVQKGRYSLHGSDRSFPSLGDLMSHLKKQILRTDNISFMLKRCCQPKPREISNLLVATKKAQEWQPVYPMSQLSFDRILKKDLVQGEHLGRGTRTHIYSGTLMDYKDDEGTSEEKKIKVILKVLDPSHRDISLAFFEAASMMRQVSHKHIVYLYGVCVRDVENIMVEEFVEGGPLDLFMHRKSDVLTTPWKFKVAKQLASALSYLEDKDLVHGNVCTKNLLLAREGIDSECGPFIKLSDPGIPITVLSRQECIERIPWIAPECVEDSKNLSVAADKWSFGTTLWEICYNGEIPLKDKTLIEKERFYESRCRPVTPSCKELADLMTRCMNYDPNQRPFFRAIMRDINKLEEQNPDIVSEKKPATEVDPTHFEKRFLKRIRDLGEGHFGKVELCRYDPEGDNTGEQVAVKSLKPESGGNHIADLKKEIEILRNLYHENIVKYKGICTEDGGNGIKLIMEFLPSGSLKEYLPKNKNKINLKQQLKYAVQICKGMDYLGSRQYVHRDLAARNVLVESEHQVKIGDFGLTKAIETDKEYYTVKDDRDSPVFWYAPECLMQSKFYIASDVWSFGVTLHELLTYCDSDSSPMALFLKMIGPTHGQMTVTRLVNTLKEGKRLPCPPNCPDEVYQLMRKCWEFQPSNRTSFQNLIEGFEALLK
Nuclear factor NF-kappa-B complex, sequence (P19838 1-433 limits assumed): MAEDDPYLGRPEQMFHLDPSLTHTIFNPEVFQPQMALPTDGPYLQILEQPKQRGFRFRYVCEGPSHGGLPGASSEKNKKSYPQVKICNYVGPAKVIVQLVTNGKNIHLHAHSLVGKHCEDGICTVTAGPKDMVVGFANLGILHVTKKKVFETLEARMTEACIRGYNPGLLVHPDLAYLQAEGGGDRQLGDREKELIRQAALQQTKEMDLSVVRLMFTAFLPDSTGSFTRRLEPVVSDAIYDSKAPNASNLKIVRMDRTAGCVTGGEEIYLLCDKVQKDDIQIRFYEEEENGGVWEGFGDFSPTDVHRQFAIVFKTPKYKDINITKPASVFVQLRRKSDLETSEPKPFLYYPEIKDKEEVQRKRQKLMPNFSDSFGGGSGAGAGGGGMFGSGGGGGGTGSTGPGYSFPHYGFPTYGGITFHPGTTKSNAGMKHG
Nuclear factor NF-kappa-B complex, sequence (Q00653 1-454 limits assumed): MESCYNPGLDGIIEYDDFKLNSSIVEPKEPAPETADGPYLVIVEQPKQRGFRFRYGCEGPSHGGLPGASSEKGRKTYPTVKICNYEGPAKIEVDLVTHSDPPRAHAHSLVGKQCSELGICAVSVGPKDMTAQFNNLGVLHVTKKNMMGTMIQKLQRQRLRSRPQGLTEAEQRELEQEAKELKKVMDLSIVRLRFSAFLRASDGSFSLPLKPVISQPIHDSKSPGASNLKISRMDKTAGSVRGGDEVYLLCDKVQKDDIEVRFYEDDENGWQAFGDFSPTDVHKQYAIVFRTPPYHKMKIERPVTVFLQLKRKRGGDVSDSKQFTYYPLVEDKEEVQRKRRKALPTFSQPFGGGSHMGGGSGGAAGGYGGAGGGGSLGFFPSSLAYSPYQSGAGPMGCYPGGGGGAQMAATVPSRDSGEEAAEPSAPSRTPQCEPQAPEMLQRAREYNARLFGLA
Nuclear factor NF-kappa-B complex, sequence (Q04206 whole entry): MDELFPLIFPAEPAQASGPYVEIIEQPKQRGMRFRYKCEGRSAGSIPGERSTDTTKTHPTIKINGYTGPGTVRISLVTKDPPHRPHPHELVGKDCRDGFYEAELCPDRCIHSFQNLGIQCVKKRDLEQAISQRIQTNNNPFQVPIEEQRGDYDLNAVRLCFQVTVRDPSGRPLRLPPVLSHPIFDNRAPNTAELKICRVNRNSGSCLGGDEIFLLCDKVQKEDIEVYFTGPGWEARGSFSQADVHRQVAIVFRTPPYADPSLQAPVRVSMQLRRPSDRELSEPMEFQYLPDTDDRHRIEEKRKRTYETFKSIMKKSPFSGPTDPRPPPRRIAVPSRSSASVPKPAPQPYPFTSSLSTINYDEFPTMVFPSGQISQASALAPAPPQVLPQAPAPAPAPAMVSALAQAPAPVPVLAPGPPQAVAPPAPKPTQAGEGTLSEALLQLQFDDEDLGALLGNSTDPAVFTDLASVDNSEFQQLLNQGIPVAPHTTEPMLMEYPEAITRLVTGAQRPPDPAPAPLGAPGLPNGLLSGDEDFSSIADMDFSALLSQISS

As usually defined, the IC50 is the concentration at which inhibition is half-maximal. On to `Cc1nc2cnc3ccc(-c4ccc(O)c(C#N)c4)cc3c2n1C1CCN(C)CC1`, for which the IC50 is 236 nM in data set [1] and more than 500 nM in [2].
For the compound `Cc1nc2cnc3ccc(-c4cc(F)c(O)c(Cl)c4)cc3c2n1C1CCN(C)CC1`, the IC50 in data set [1] amounted to 11.9 nM; in data set [3], 136 nM; in data set [2], 127 nM.
With `Cc1cc(-c2ccc3ncc4nc(C)n(C5CCN(C)CC5)c4c3c2)ccc1O`, the IC50 in data set [1] is 435 nM; in [2], more than 500 nM.
For `Cc1cc(-c2ccc3ncc4nc(C)n(C5CCN(C)CC5)c4c3c2)cc(C)c1O`, in that order: 100 nM and more than 500 nM.
In the same order, the values of `Cc1nc2cnc3ccc(-c4ccc(O)c(C(F)(F)F)c4)cc3c2n1C1CCN(C)CC1` are more than 500 nM and more than 500 nM.
For `Cc1nc2cnc3ccc(-c4ccc(O)c(Cl)c4)cc3c2n1C1CCN(C)CC1`, in that order: 42.3 nM and more than 500 nM.
With `Cc1nc2cnc3ccc(-c4ccc(O)cc4Cl)cc3c2n1C1CCN(C)CC1`, the IC50 was 386 nM in [1] and more than 500 nM in data set [2].
In the same order, the values of `COc1cc(-c2ccc3ncc4nc(C)n(C5CCN(C)CC5)c4c3c2)ccc1O` are 776 nM and more than 500 nM.
For `Cc1nc2cnc3ccc(-c4ccc(O)cc4)cc3c2n1C1CCN(C)CC1`, in that order: 560 nM and more than 500 nM.
In the same order, the values of `Cc1nc2cnc3ccc(-c4cc(Cl)c(O)c(Cl)c4)cc3c2n1C1CCCN(C)C1` (stereo not drawn) are 6.6 nM and 4.9 nM.
Regarding `Cc1nc2cnc3ccc(-c4cc(Cl)c(O)c(Cl)c4)cc3c2n1[C@H]1CC[C@H](CO)CC1`, the IC50 worked out at 7.2 nM in data set [1], 12.6 nM in data set [3] and 15.4 nM in [2].
With `Cc1nc2cnc3ccc(-c4cc(Cl)cc(Cl)c4)cc3c2n1C1CCN(C)CC1`, the IC50 in data set [1] and in [2] was more than 500 nM each time.
`Nc1ccc(O)c(C(=O)O)c1` [MESALAMINE]: the Activity in [4] turned out to be 11.69%. Further, the outcome in [5], in data set [6], in data set [7], in data set [8], in data set [9] and in data set [10] was Active. The outcome in data set [11] and in data set [12] was Active.
On to `Cc1nc2cnc3ccc(-c4cc(Cl)c(O)c(Cl)c4)cc3c2n1[C@H]1CC[C@H](O)CC1`, for which the concentration for half-maximal inhibition (IC50) in data set [1] came out at 9.9 nM; in [2], 20.2 nM.
`Cc1nc2cnc3ccc(-c4cc(Cl)c(O)c(Cl)c4)cc3c2n1C1CCOCC1`: the figures for the IC50 in data set [1], in data set [3] and in data set [2] were 6.8 nM, 22.6 nM and 20.8 nM, respectively.
In [13], `O=C(c1ccccc1)c1ccc2nc(NC(=O)c3csc(C4CCN(c5ncnc6ccsc56)CC4)n3)[nH]c2c1` yielded an IC50 of 200 nM.
Regarding `Cc1nc2cnc3ccc(-c4ccccc4O)cc3c2n1C1CCN(C)CC1`, the half-maximal inhibitory concentration (IC50) in data set [1] was more than 500 nM.
For `Cc1nc2cnc3ccc(-c4ccc(O)c(F)c4)cc3c2n1C1CCN(C)CC1`, the IC50 in data set [1] was 30 nM; in data set [3], more than 500 nM; in [2], more than 500 nM.
Regarding `Cc1nc2cnc3ccc(-c4ccc5c(c4)OCCO5)cc3c2n1C1CCN(C)CC1`, the IC50 in [1] is more than 500 nM.
On the same count and under the same terms, as for `Cc1nc2cnc3ccc(-c4ccc(N5CCOCC5)cc4)cc3c2n1C1CCN(C)CC1`, the figure is more than 500 nM.
Regarding `Cc1nc2cnc3ccc(-c4cc(F)c(O)c(F)c4)cc3c2n1C1CCN(C)CC1`, the IC50 is 19.4 nM in data set [1], more than 500 nM in data set [3] and more than 500 nM in [2].
`Cc1nc2cnc3ccc(-c4cc(Cl)c(O)c(Cl)c4)cc3c2n1[C@H]1CCCN(C)C1`: the results for the IC50 in [1] and in [2] were 5.5 nM and 19.6 nM, respectively.
Regarding `Cc1nc2cnc3ccc(-c4ccc(F)c(O)c4)cc3c2n1C1CCN(C)CC1`, the IC50 in [1] was more than 500 nM.
As for `Cc1nc2cnc3ccc(-c4cc(Cl)c(O)c(Cl)c4)cc3c2n1C1CCN(CN(C)C)CC1`, the values for the half-maximal inhibitory concentration (IC50) in [1] and in [2] were 7.4 nM and 62 nM, respectively.
As for `Cc1nc2cnc3ccc(-c4cc(Cl)c(O)c(Cl)c4)cc3c2n1[C@H]1CC[C@H](N(C)C)CC1`, the figures for the IC50 in data set [1] and in data set [2] were 16.7 nM and 63 nM, respectively.
For `Cc1nc2cnc3ccc(-c4ccc(O)cc4F)cc3c2n1C1CCN(C)CC1`, in that order: 237 nM and more than 500 nM.
For `Cc1nc2cnc3ccc(-c4cc(Cl)c(O)c(Cl)c4)cc3c2n1[C@@H]1CCCN(C)C1`, the figures for the IC50 in data set [1], in [3] and in data set [2] were 2.6 nM, 13.5 nM and 3.2 nM, respectively. Besides, the IC50 at 24 h in [14] stood at 2000 nM.

(Values after ChEMBL document CHEMBL5113519, “Discovery of Novel Imidazo[4,5-c]quinoline Derivatives to Treat Inflammatory Bowel Disease (IBD) by Inhibiting Multiple Proinflammatory Signaling Pathways and Restoring Intestinal Homeostasis” (J Med Chem, 2022).)
